Measurements published in US4661510A, “α-allenic-α-amino acids as enzyme inhibitors” (priority 1985, dated 1987).

Tests used:
[1] = molecular target: T1, ornithine decarboxylase (Homo sapiens, UniProt P11926); settings: Relyea and Rando 1975; cited from earlier work
T1 sequence (P11926 1-461): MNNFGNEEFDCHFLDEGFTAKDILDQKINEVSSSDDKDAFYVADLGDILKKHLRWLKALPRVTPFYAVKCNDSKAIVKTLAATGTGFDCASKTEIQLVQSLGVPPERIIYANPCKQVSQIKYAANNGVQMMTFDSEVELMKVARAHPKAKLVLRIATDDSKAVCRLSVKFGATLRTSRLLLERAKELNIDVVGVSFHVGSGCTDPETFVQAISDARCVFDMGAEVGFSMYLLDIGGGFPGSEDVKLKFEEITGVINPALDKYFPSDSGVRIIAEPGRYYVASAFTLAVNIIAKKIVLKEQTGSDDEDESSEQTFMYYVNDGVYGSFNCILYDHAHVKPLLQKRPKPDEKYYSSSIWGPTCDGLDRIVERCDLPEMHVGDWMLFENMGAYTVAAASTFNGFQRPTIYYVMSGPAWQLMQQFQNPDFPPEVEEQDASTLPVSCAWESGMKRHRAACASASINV

[2] = molecular target: bacterial glutamate decarboxylase (Escherichia coli, UniProt P69910); settings: Jung et al 1978; cited from earlier work
[3] = test system: mammalian glutamate decarboxylase; settings: Jung et al 1978; cited from earlier work
[4] = molecular target: T2, mammalian DOPA decarboxylase from porcine kidney (Sus scrofa, UniProt P80041); experiment: Time dependent inactivation of DOPA decarboxylase; assay type: biochemical; settings: porcine kidney enzyme
T2 construct: isolated and purified from porcine kidney; from tissue; host or cells: porcine kidney
T2 sequence (P80041 1-486): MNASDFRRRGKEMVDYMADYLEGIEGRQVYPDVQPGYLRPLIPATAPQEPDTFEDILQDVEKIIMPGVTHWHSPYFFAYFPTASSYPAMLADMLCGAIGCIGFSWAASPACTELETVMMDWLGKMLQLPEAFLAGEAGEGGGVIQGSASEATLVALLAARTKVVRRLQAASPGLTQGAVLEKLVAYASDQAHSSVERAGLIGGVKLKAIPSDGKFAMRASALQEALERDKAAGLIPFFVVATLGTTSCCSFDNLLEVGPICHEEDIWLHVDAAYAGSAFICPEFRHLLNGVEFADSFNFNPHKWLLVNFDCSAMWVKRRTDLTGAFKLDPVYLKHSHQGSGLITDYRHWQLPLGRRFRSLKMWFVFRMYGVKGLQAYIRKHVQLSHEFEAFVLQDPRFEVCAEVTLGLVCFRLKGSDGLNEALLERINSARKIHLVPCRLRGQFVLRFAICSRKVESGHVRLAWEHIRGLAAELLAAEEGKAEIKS
Source text: (§1) Mammalian DOPA decarboxylase was isolated and purified from porcine kidney by the procedure of Borri-Voltatorni et al [Eur. J. Biochem., 93, 181 (1979)] with modifications as introduced by Rudd and Thanassi [Biochemistry, 20, 7469 (1981)]. Bacterial L-phenylalanine and L-tyrosine decarboxylases ex Streptococcus faecallis were purchased from Sigma Chemical Co. as crude extracts and studied without further purification.
Time dependent inactivation of mammalian DOPA decarboxylase was monitored by incubation of enzyme with 4 to 100 molar equivalent excess of 2-amino-2-(3,4-dihydroxybenzyl)penta-3,4-dienoic acid at pH 6.8 and 37° C. At appropriate time intervals, aliquots of the mixture were withdrawn, diluted 30-fold into excess L-DOPA (2 mM) and residual DOPA decarboxylase activity determined.
DOPA decarboxylase activity was routinely measured by liquid chromatography and electrochemical detection of catecholamine products. DOPA decarboxylase (1-5 micrograms, 1-20 units) was incubated with L-DOPA (2000 micromolar, 150 microliters) and PLP (10 micromolar) in 0.1M phosphate at pH 6.8 and 37° C. After 1-10 minutes, the reaction was quenched with citric acid (2M, 25 microliters), diluted two-fold with distilled water and 10 microliter aliquots were analyzed by HPLC on a reverse phase Brownlee RP-18 column. Isocratic elution with pH 4.35 buffer [0.1M NaOAc ([…]), 0.1M citric acid (32% v/v) and methanol (15% v/v)] at a flow rate of 2.5 ml/min. afforded baseline resolution of dopamine (RT=2.8 min.) from L-DOPA (RT=1.9 min.).
Quantification of dopamine was accomplished by preoxidation of the catechol to the ortho quinone at +0.25 volts in the first analytical electrochemical cell, followed by the selective reduction of ortho quinone in the second analytical cell set at -0.25 volts. This configuration for the ESA electrochemical detector allowed highly sensitive and selective detection of catecholamines (less than 10 picomoles/injection).

[5] = molecular target: T3, bacterial tyrosine decarboxylase from Streptococcus faecallis (Enterococcus faecalis, UniProt Q838D6); experiment: Time dependent inactivation of tyrosine decarboxylase; assay type: biochemical; settings: Streptococcus faecallis enzyme
T3 construct: purchased from Sigma Chemical Co. as crude extracts; purchased Sigma Chemical Co; host or cells: Streptococcus faecalis, crude extract
T3 sequence (Q838D6 1-620): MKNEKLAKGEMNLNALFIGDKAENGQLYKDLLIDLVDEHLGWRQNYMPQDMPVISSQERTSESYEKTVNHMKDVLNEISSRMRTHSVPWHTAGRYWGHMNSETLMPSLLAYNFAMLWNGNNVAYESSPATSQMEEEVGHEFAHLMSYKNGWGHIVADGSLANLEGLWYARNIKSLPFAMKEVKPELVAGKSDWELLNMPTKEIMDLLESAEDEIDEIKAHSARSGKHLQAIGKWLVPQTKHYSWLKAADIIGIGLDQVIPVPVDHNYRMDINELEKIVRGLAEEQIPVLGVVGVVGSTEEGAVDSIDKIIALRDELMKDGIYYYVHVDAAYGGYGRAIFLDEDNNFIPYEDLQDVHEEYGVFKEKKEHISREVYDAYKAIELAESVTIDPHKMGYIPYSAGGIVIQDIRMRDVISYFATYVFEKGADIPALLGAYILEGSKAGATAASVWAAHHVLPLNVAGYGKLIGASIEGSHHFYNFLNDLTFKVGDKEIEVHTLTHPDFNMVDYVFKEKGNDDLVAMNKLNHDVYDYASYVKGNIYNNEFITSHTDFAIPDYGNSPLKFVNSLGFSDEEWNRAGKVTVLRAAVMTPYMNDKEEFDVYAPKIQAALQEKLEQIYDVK
Source text: as §1
(§2) The time dependent inactivation of bacterial aromatic amino acid decarboxylases with 200-1000 micromolar inhibitor, e.g. 2-amino-2-(4-hydroxybenzyl)-penta-3,4-dienoic acid or 2-amino-2-benzylpenta-3,4-dienoic acid, was monitored at pH 5.5 and 37° C. Residual activity of tyrosine decarboxylase ex Streptococcus faecallis was determined by measurement of p-tyramine production at pH 5.5 and 37° C. p-Tyramine was separated by HPLC and quantified by electrochemical oxidation at +0.7 volts.

[6] = molecular target: T4, phenylalanine decarboxylase from Streptococcus faecallis (Enterococcus faecalis, UniProt Q838D6); experiment: Time dependent inactivation of phenylalanine decarboxylase; assay type: biochemical; settings: Streptococcus faecallis enzyme
T4 construct: L-phenylalanine substrate, phenylethylamine by GC
T4 sequence (Q838D6 1-620): T3 sequence (Q838D6 1-620)
Source text: as §1, §2
Residual activity of L-phenylalanine decarboxylase ex Streptococcus faecallis with L-phenylalanine (2 mM) as substrate was meaasured by gas chromatographic analysis of phenylethylamine production. Direct injection of enzymatic reaction mixture (1-5 microliters) onto a standard glass column packed with 10% Apiezon L on Chromosorb 80/100 deactivated with 2% KOH allowed separation of aromatic amine from the reaction mixture. FID detection quantified the rate of product formation.

[7] = test system: Male Sim:(S.D.)fBR rats; experiment: In vivo potentiation of L-DOPA induced behaviors; parameters: species or system rat; settings: for Mean Behavior Score at 60 min.: score scale 0-6, before 200 mg/kg L-DOPA i.p.
Protocol: Male Sim:(S.D.)fBR rats weighing 180-335 g were used for these experiments. Groups of 5 rats were individually housed and received water, or various doses of either 2-amino-2-(3-hydroxybenzyl)penta-3,4-dienoic acid or 2-amino-2-(3,4-dihydroxybenzyl)penta-3,4-dienoic acid 30 l minutes before 200 mg/kg of L-DOPA, i.p. Beginning 15 minutes later, behavioral observations were made at 15 minutes intervals for 2 hours. Behavoir was scored as follows:
3=Alert with intermittent sniffing

[8] = test system: rat brain glutamate decarboxylase; settings: Crystal et al 1977; cited from earlier work
[9] = molecular target: T5, aromatic amino acid decarboxylase (Sus scrofa, UniProt P80041); settings: Maycock et al; cited from earlier work
T5 sequence (P80041 1-486): T2 sequence (P80041 1-486)

[10] = molecular target: T6, rat liver ornithine decarboxylase (Rattus norvegicus, UniProt P09057); settings: Metcalf et al 1979; cited from earlier work
T6 construct: host or cells: rat liver
T6 sequence (P09057 1-461): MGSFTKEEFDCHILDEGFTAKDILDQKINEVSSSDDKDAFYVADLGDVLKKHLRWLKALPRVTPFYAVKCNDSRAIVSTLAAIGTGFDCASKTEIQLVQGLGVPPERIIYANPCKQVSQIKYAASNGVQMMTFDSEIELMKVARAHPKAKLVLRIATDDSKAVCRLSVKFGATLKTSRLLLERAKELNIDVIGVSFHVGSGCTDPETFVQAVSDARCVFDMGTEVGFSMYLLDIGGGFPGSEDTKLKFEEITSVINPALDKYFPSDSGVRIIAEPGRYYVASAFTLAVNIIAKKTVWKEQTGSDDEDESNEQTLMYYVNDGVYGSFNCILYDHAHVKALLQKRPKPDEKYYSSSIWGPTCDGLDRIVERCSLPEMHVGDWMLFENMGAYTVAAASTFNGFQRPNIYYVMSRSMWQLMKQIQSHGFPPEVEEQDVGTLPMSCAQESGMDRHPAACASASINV

[11] = molecular target: T7, rat prostate ornithine decarboxylase (Rattus norvegicus, UniProt P09057); settings: Metcalf et al 1979; cited from earlier work
T7 construct: host or cells: rat prostate
T7 sequence (P09057 1-461): T6 sequence (P09057 1-461)

bacterial glutamate decarboxylase, sequence (P69910 whole entry): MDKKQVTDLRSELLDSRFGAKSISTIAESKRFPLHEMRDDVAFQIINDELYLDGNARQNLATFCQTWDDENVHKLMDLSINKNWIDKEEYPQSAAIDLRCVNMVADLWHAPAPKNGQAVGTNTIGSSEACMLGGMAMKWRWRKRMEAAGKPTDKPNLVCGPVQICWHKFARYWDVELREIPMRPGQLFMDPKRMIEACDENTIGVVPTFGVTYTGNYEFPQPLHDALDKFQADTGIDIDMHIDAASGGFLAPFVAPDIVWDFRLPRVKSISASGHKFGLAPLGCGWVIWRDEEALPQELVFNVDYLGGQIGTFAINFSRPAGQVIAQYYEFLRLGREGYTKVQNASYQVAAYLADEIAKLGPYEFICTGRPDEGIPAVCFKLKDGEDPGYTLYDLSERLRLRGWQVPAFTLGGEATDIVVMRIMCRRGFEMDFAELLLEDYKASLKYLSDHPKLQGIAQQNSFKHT

irreversible inactivation of DOPA decarboxylase [4] | irreversible inactivation of tyrosine decarboxylase [5] | irreversible inactivation of phenylalanine decarboxylase [6] | SMILES | further results
 |  |  | NCC=CC(N)C(=O)O (stereo not drawn) [β, γ-dehydroornithine] | inhibition of ornithine decarboxylase [1]: very potent competitive inhibitor
 |  |  | C#C[C@H](N)CCC(=O)O [(R) 4-amino-hex-5-ynoic acid] | inhibition of glutamate decarboxylase [2]: inhibit; inhibition of glutamate decarboxylase [3]: inhibit
irreversible inactivators | irreversible inactivators | irreversible inactivators | CC=C=CC(N)(Cc1cccc(O)c1)C(=O)O (centres unmarked) [2-amino-2-(3-hydroxybenzyl)hexa-3,4-dienoic acid] | 
 |  |  | CC(N)(/C=C/C(=O)O)C(=O)O (stereo not drawn) [α-methyl-trans-dehydroglutamic acid] | inhibition of glutamate decarboxylase [8]: irreversibly inhibits
irreversible inactivators | irreversible inactivators | irreversible inactivators | C=C=CC(N)(Cc1ccccc1)C(=O)O (centres unmarked) [2-amino-2-benzylpenta-3,4-dienoic acid] | 
irreversible inactivators | irreversible inactivators | irreversible inactivators | C=C=CC(N)(Cc1ccc(O)cc1)C(=O)O (centres unmarked) [2-amino-2-(4-hydroxybenzyl)penta-3,4-dienoic acid] | 
 |  |  | C=CC(N)Cc1ccc(O)c(O)c1 (stereo not drawn) [α-vinyl-dopamine] | inactivation of aromatic amino acid decarboxylase [9]: slow-time dependent inactivation
 |  |  | C#CC(N)CCCN (single isomer, unassigned; (-)) [(-)-5-hexyne-1,4-diamine] | inhibition of ornithine decarboxylase [10]: potent time-dependent inhibitor; inhibition of ornithine decarboxylase [11]: potent time-dependent inhibitor
irreversible inactivators | irreversible inactivators | irreversible inactivators | CC=C=CC(N)(Cc1ccccc1)C(=O)O (centres unmarked) [2-amino-2-benzylhexa-3,4-dienoic acid] | 

SMILES | irreversible inactivation of DOPA decarboxylase [4] | irreversible inactivation of tyrosine decarboxylase [5] | irreversible inactivation of phenylalanine decarboxylase [6] | further results
C=C=CC(N)(Cc1ccc(O)c(O)c1)C(=O)O (centres unmarked) [2-amino-2-(3,4-dihydroxybenzyl)penta-3,4-dienoic acid] | irreversible inactivators | irreversible inactivators | irreversible inactivators | potentiation of the behaviors induced by L-DOPA ([7]; 30 mg/kg i.p. or s.c., 30 minutes before 200 mg/kg L-DOPA i.p.): active; Mean Behavior Score at 60 min. ([7]; 30 mg/kg i.p.): 4.0; Mean Behavior Score at 60 min. ([7]; 30 mg/kg s.c.): 4.0; potentiation of DOPA behaviors ([7]; 3 to 30 mg/kg i.p. or 30 to 150 mg/kg s.c.): potentiate DOPA behaviors
